# According to ChEMBL document CHEMBL5505995, “Discovery of novel urea derivatives as ferroptosis and autophagy inducer for human colon cancer treatment” (Eur J Med Chem, 2024):
# Active and inactive are the calls of the source. No cut-off for these calls is given here.
# Legend:
# HT-29 [1] = test: Induction of ferroptosis in human HT-29 cells assessed as increase in intracellular lipid peroxidation accumulation incubated for 48 hrs in presence of ferroptosis inhibitor deferoxamine by C11 BODIPY 581/591 staining based flow cytometry; assay type: functional, cell-based
# HT-29 [2] = test: Induction of ROS production in human HT-29 cells assessed as increase in red fluorescence intensity incubated for 48 hrs by DHE fluorescent probe based flow cytometry; assay type: functional, cell-based
# HT-29 [3] = test: Induction of ferroptosis in human HT-29 cells assessed as increase in intracellular malondialdehyde accumulation incubated for 48 hrs; assay type: functional, cell-based
# HT-29 [4] = test: Induction of cell cycle arrest in human HT-29 cells assessed as accumulation of cells at G2/M phase at 1 uM incubated for 48 hrs by propidium iodide staining based flow cytometric analysis; assay type: functional
# HepG2 = test: Antiproliferative activity against human HepG2 cells assessed as inhibition of cell growth incubated for 48 hrs by MTT assay; assay type: functional, cell-based; conditions: HepG2, 48 h
# HT-29 [5] = test: Induction of ferroptosis in human HT-29 cells assessed as mitochondrial morphological change incubated for 48 hrs in presence of ferroptosis inhibitor deferoxamine by transmission electron microscopic analysis; assay type: functional, cell-based
# HT-29 [6] = test: Induction of ferroptosis in human HT-29 cells assessed as decrease in GPx level incubated for 48 hrs in presence of ferroptosis inhibitor deferoxamine; assay type: functional, cell-based
# HT-29 [7] = test: Induction of ferroptosis in human HT-29 cells assessed as decrease in intracellular GSH level at 1 to 4 uM incubated for 48 hrs; assay type: functional, cell-based; conditions: dose 1-4 µM
# HT-29 [8] = test: Induction of ferroptosis in human HT-29 cells assessed as decrease in GPx level at 1 to 4 uM incubated for 48 hrs; assay type: functional, cell-based; conditions: dose 1-4 µM
# HT-29 [9] = test: Antiproliferative activity against human HT-29 cells assessed as inhibition of cell growth incubated for 48 hrs in presence of ROS scavenger NAC by MTT assay; assay type: functional, cell-based
# HT-29 [10] = test: Induction of autophagy in human HT-29 cells assessed as increase in MDC positive cells incubated for 48 hrs in presence of ferroptosis inhibitor deferoxamine by MDC staining based flow cytometric analysis; assay type: functional, cell-based
# HT-29 [11] = test: Induction of autophagy in human HT-29 cells assessed as upregulation of ATG7 protein expression incubated for 48 hrs by Western blotting analysis; assay type: functional, cell-based
# HT-29 [12] = test: Induction of ferroptosis in human HT-29 cells assessed as decrease in GPx level incubated for 48 hrs in presence of ferroptosis inhibitor CPX; assay type: functional, cell-based
# HT-29 [13] = test: Induction of ferroptosis in human HT-29 cells assessed as fusion of mitochondrial cristae incubated for 48 hrs in presence of ferroptosis inhibitor deferoxamine by transmission electron microscopic analysis; assay type: functional, cell-based
# HT-29 [14] = test: Induction of ferroptosis in human HT-29 cells assessed as fusion of mitochondrial cristae incubated for 48 hrs by transmission electron microscopic analysis; assay type: functional, cell-based
# HT-29 [15] = test: Induction of ferroptosis in human HT-29 cells assessed as increase in intracellular iron level incubated for 48 hrs; assay type: functional, cell-based
# HT-29 [16] = test: Induction of ROS production in human HT-29 cells assessed as increase in DCF fluorescence intensity incubated for 48 hrs by DCFH-DA fluorescent probe based flow cytometry; assay type: functional, cell-based
# HT-29 [17] = test: Induction of ferroptosis in human HT-29 cells assessed as decrease in intracellular GSH level incubated for 48 hrs in presence of ferroptosis inhibitor CPX; assay type: functional, cell-based
# HT-29 [18] = test: Antiproliferative activity against human HT-29 cells assessed as inhibition of cell growth at 1 to 10 uM incubated for 48 hrs by MTT assay; assay type: functional, cell-based; conditions: dose 1-10 µM
# HeLa = test: Antiproliferative activity against human HeLa cells assessed as inhibition of cell growth incubated for 48 hrs by MTT assay; assay type: functional, cell-based
# HT-29 [19] = test: Induction of ferroptosis in human HT-29 cells assessed as increase in intracellular lipid peroxidation accumulation incubated for 48 hrs in presence of ferroptosis inhibitor CPX by C11 BODIPY 581/591 staining based flow cytometry; assay type: functional, cell-based
# HT-29 [20] = test: Induction of autophagy in human HT-29 cells assessed as increase in MDC positive cells incubated for 48 hrs in presence of ROS scavenger NAC by MDC staining based flow cytometric analysis; assay type: functional, cell-based
# HT-29 [21] = test: Induction of apoptosis in human HT-29 cells at 1 to 4 uM incubated for 48 hrs by Annexin V-FITC/PI staining based flow cytometry; assay type: functional, cell-based; conditions: dose 1-4 µM
# HT-29 [22] = test: Induction of cell cycle arrest in human HT-29 cells assessed as downregulation of Cyclin B1 expression at 0.5 to 4 uM incubated for 48 hrs by Western blotting analysis; assay type: functional, cell-based; conditions: dose 0.5-4 µM
# HT-29 [23] = test: Induction of ferroptosis in human HT-29 cells assessed as increase in intracellular malondialdehyde accumulation incubated for 48 hrs in presence of ROS scavenger NAC; assay type: functional, cell-based
# HT-29 [24] = test: Induction of necrosis in human HT-29 cells incubated for 48 hrs by MTT assay; assay type: functional, cell-based
# HT-29 [25] = test: Induction of ferroptosis in human HT-29 cells assessed as increase in mitochondrial membrane density incubated for 48 hrs in presence of ferroptosis inhibitor deferoxamine by transmission electron microscopic analysis; assay type: functional, cell-based
# HT-29 [26] = test: Induction of cell death in human HT-29 cells incubated for 48 hrs in presence of ferroptosis inhibitor CPX by MTT assay; assay type: functional, cell-based
# HT-29 [27] = test: Induction of ferroptosis in human HT-29 cells assessed as decrease in intracellular GSH level incubated for 48 hrs in presence of autophagy inhibitor 3-methyladenine; assay type: functional, cell-based
# K562 = test: Antiproliferative activity against human K562 cells assessed as inhibition of cell growth incubated for 48 hrs by MTT assay; assay type: functional, cell-based; conditions: K562, 48 h
# HT-29 [28] = test: Induction of ferroptosis in human HT-29 cells assessed as decrease in intracellular GSH level incubated for 48 hrs in presence of ferroptosis inhibitor deferoxamine; assay type: functional, cell-based
# HT-29 [29] = test: Induction of ferroptosis in human HT-29 cells incubated for 48 hrs by MTT assay; assay type: functional, cell-based
# HT-29 [30] = test: Antiproliferative activity against human HT-29 cells assessed as inhibition of cell growth incubated for 48 hrs in presence of autophagy inhibitor 3-methyladenine by MTT assay; assay type: functional, cell-based
# HT-29 [31] = test: Induction of ferroptosis in human HT-29 cells assessed as decrease in GPx level incubated for 48 hrs in presence of autophagy inhibitor 3-methyladenine; assay type: functional, cell-based
# HT-29 [32] = test: Induction of ferroptosis in human HT-29 cells assessed as increase in intracellular iron level incubated for 48 hrs in presence of ROS scavenger NAC; assay type: functional, cell-based
# HT-29 [33] = test: Antiproliferative activity against human HT-29 cells assessed as inhibition of cell growth incubated for 48 hrs in presence of autophagy inhibitor Spautin-1 by MTT assay; assay type: functional, cell-based
# HT-29 [34] = test: Induction of ferroptosis in human HT-29 cells assessed as increase in intracellular iron level incubated for 48 hrs in presence of ferroptosis inhibitor CPX; assay type: functional, cell-based
# HT-29 [35] = test: Induction of cell death in human HT-29 cells incubated for 48 hrs in presence of ferroptosis inhibitor deferoxamine by MTT assay; assay type: functional, cell-based
# Cell membrane = test: Induction of mitochondrial membrane potential loss in human HT-29 cells assessed as increase in green fluorescence incubated for 48 hrs by JC-1 staining based flow cytometry; assay type: cell membranes
# HT-29 [36] = test: Induction of ferroptosis in human HT-29 cells assessed as increase in intracellular lipid peroxidation accumulation incubated for 48 hrs in presence of autophagy inhibitor 3-methyladenine by C11 BODIPY 581/591 staining based flow cytometry; assay type: functional, cell-based
smiles,measurement,setting,value
COc1ccc2c(c1)NCCN2C(=O)NCCCl,Activity,HT-29 [1],inactive
same,Activity,HT-29 [2],Active
same,Activity,HT-29 [3],Dose-Dependent Effect
same,Activity,HT-29 [4],inactive
same,IC50,HepG2,13.8 µM
same,Activity,HT-29 [5],inactive
same,Activity,HT-29 [6],inactive
same,Activity,HT-29 [7],Active
same,Activity,HT-29 [8],Active
same,Activity,HT-29 [9],inactive
same,Activity,HT-29 [10],Active
same,Activity,HT-29 [11],Dose-Dependent Effect
same,Activity,HT-29 [12],inactive
same,Activity,HT-29 [13],inactive
same,Activity,HT-29 [14],Active
same,Activity,HT-29 [15],Dose-Dependent Effect
same,Activity,HT-29 [16],Dose-Dependent Effect
same,Activity,HT-29 [17],inactive
same,Activity,HT-29 [18],Active
same,IC50,HeLa,6.18 µM
same,Activity,HT-29 [19],inactive
same,Activity,HT-29 [20],inactive
same,Activity,HT-29 [21],inactive
same,Activity,HT-29 [22],Active
same,Activity,HT-29 [23],inactive
same,Activity,HT-29 [24],Active
same,Activity,HT-29 [25],inactive
same,Activity,HT-29 [26],inactive
same,Activity,HT-29 [27],Active
same,IC50,K562,4.92 µM
same,Activity,HT-29 [28],inactive
same,Activity,HT-29 [29],Active
same,Activity,HT-29 [30],inactive
same,Activity,HT-29 [31],Active
same,Activity,HT-29 [32],inactive
same,Activity,HT-29 [33],inactive
same,Activity,HT-29 [34],inactive
same,Activity,HT-29 [35],inactive
same,Activity,Cell membrane,Dose-Dependent Effect
same,Activity,HT-29 [36],Active
